Experimental findings from PubChem BioAssay AID504322 (Emory University Molecular Libraries Screening Center, 2011) are described below.

The assay deals with CHOP reporter cell assay, percent of control. The assay is described as follows: CHOP reporter inhibitor potency, dose response, cell-based (AID 504322).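 Further: CHO cells carrying a CHOP reporter stimulated with tunicamycin to induce ER stress; potency is for inhibition of the stress-induced reporter signal.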

Activity calls are given as the source filed them. How the calls were made is not given here.

As for `Cc1ccc(NC(=S)NC(NC(=O)Cc2cccc3ccccc23)C(Cl)(Cl)Cl)cc1` (configuration not stated), the IC50 (commonly the point on the concentration scale where inhibition reaches its midpoint) was > 10 µM (inactive).

With `COc1ccc(NC(=O)/C(Cl)=C(/Cl)S(=O)Cc2ccccc2Cl)cn1` (configuration not stated), the IC50 is 0.3 µM.

Regarding `Cc1cccnc1NC(=O)c1c(O)c2ccccc2n(C)c1=O`, the IC50 is > 10 µM (inactive).

On to `Cn1cnc([N+](=O)[O-])c1S(=O)(=O)c1cccc(Cl)c1`, for which the IC50 was 8.11 µM (inactive).

In the case of `O=C1c2[nH]nc(-c3ccccc3O)c2C(c2cccc(Cl)c2)N1Cc1ccco1` (configuration not stated), the IC50 was 9.62 µM (inactive).

In the case of `CCCCc1ccc(NC(=S)Nc2ccc(Cl)c(S(=O)(=O)N(C)C)c2)cc1`, the IC50 was > 10 µM (inactive).

Take `Oc1ccc(N=Nc2cccc(C(F)(F)F)c2)cc1C=Nc1ccc(N2CCOCC2)cc1`: the IC50 is 6.97 µM (inactive).

For the molecule `CC1=C/C(=N\OS(=O)(=O)c2ccccc2)C=CC1=O`, the IC50 is 1.43 µM.

Regarding `Fc1ccc(Nc2nc(NCc3ccco3)c3ccccc3n2)cc1`, the IC50 was > 10 µM (inactive).

In the case of `O=C(c1ccco1)N1CCN(c2c(-c3ccccc3)c3cc(Cl)ccc3[nH]c2=O)CC1`, the IC50 was 5.65 µM (inactive).

On to `COc1cc(OC)c(OC)cc1/C=N/Nc1ncnc2c1[nH]c1ccccc12`, for which the IC50 is 9.19 µM (inactive).

For `CCCC(NCC(O)COc1ccc(-c2ccccc2)cc1)c1ccccc1` (configuration not stated), the IC50 is 9.3 µM (inactive).

Take `Cc1cccc(C)c1NC(=O)COc1ccccc1C(=O)Nc1ccc(Br)cn1`: the IC50 is > 10 µM (inactive).

For the molecule `Cc1ccc(NC(=O)c2ccc(Nc3c([N+](=O)[O-])cc([N+](=O)[O-])cc3[N+](=O)[O-])cc2)cc1`, the IC50 was 1.81 µM.

Take `O=C1C=CC(O)(c2cc(=O)c3c(O)cc(O)cc3o2)C=C1`: the IC50 was 2.58 µM.

Consider `COc1ccc(-c2nc(-c3ccc(NC(=O)c4ccc(Br)o4)cc3)no2)cc1OC`, for which the IC50 is > 10 µM (inactive).

Consider `Cc1cccc(OCc2nnc(SCc3nc4cc(C(F)(F)F)ccc4c(=O)[nH]3)o2)c1`, for which the IC50 was 8.17 µM (inactive).

On to `CC(C)=CCc1c(O)c(CC=C(C)C)c2c(c1O)C(=O)CC(c1ccc(O)cc1)O2` (configuration not stated), for which the IC50 is 9.61 µM (inactive).

On to `COc1oc(-c2ccc(Cl)cc2)nc1C(F)(F)F`, for which the IC50 is 1.29 µM.

For `CC(C)c1nnc(N2C(=O)c3oc4ccccc4c(=O)c3C2c2ccco2)s1` (configuration not stated), the IC50 was > 10 µM (inactive).

Take `CC(C)(C)C(=O)NC(=S)NNC(=O)C(c1ccccc1)c1ccccc1`: the IC50 is 9.04 µM (inactive).

Consider `O=C1C(Nc2ccc(O)cc2)=C/C(=N/S(=O)(=O)c2cccs2)c2ccccc21`, for which the concentration for half-maximal inhibition (IC50) is 1.19 µM.

For the molecule `O=c1cc(-c2c(F)c(F)c(F)c(F)c2F)oc2c(F)c(F)c(F)c(F)c12`, the IC50 was 3.98 µM.

Regarding `Cc1ccc(C2(c3ccc(C)cc3)CC2C(=O)Nc2ccc([N+](=O)[O-])cc2O)cc1` (configuration not stated), the IC50 is 8.64 µM (inactive).

As for `COc1cc(/C=C(/C#N)c2nc3ccccc3c(=O)[nH]2)ccc1O`, the IC50 was > 10 µM (inactive).

`COC(=O)C(Nc1ccccc1Cl)(c1cc(C)c(O)c(C)c1)C(F)(F)F` (configuration not stated): the IC50 is 9.66 µM (inactive).

`Cc1ccc(-c2ccc(/C=C(\C#N)C(=O)Nc3cc(C)nn3-c3ccccc3)o2)cc1`: the IC50 was 6.7 µM (inactive).

Turning to `N#Cc1nccnc1S(=O)(=O)c1cccs1`, the IC50 is 2.67 µM.

As to `N#C/C(=C\c1ccc([N+](=O)[O-])o1)c1nc2ccccc2[nH]1`, the IC50 is 2.74 µM.

Consider `CC(C)Cn1c(N)c(C(=O)COC(=O)CC23CC4CC(CC(C4)C2)C3)c(=O)n(C)c1=O`, for which the 50% inhibitory concentration (IC50) was 0.82 µM.

On to `Cc1nn(CCC#N)c2nc(-c3ccccc3)cc(C(F)(F)F)c12`, for which the IC50 is 4 µM (inactive).

Regarding `COc1ccc(NC(=O)c2cc3cccc(OC)c3oc2=Nc2ccc(C(=O)O)cc2)cc1OC`, the IC50 was 5.28 µM (inactive).

As for `O=C(OCC(F)(F)F)c1cccc(COc2ccc3ccccc3c2)c1`, the half-inhibitory concentration (IC50) was 1.26 µM.

As to `Oc1[nH]c2ccccc2c1N=NC(=S)NCCc1ccccc1`, the IC50 was 9.82 µM (inactive).

For `CC[C@@H](C)[C@H](NC(=O)OC(C)(C)C)c1nnc(S(=O)(=O)Cc2cc(C)ccc2C)o1`, the IC50 was > 10 µM (inactive).

Take `Cn1c(=O)cc(SCC(=O)NCCC2=CCCCC2)c2ccc(Cl)cc21`: the IC50 is 5.34 µM (inactive).

For the molecule `NC(=O)c1ccc(C(F)(F)F)n(Cc2ccc(Cl)cc2)c1=O`, the IC50 is 9.05 µM (inactive).

Turning to `CCCCn1c(=O)c(C(=O)Nc2cnccn2)c(O)c2ccccc21`, the IC50 was 7.31 µM (inactive).

As for `CC1=C(C)/C(=N\OS(=O)(=O)c2ccccc2)C=CC1=O`, the IC50 is 2.13 µM.

Take `C[C@H]1C[C@@H](C)C(=O)[C@@H]([C@H](O)CC2CC(=O)NC(=O)C2)C1`: the IC50 is < 0.16 µM (inactive).

With `Oc1ccc(Br)cc1-c1nc2cnccn2c1NC1CCCCC1`, the IC50 was > 10 µM (inactive).

In the case of `Cc1cccc(/C=C/c2nc3ccccc3c(=O)[nH]2)c1`, the IC50 is > 10 µM (inactive).

In the case of `COc1ccc(CC(=O)Nc2cccc(-c3nnc(-c4cccc(C)c4)o3)c2)cc1OC`, the IC50 was 5.17 µM (inactive).

On to `C=C1C(=O)O[C@@H]2C[C@@H](C)[C@@H]3C=CC(=O)[C@@]3(C)[C@@H](O)[C@H]12`, for which the IC50 was 2.61 µM.

In the case of `Cc1ccc2c(c1)c1c(n2CC(O)Cn2c(C)nc3ccccc32)CCCC1` (configuration not stated), the IC50 was 6.68 µM (inactive).

As to `O=C(COc1ccc(Cl)cc1Cl)NCCC1=CCCCC1`, the IC50 was 7.77 µM (inactive).

As to `N#C/C(=C\c1ccc([N+](=O)[O-])o1)C(=O)Nc1ccc(F)cc1`, the IC50 is > 10 µM (inactive).

In the case of `Cc1ccccc1CS(=O)(=O)c1nnc([C@H](Cc2ccccc2)NC(=O)OC(C)(C)C)o1`, the IC50 was 4.01 µM.

Turning to `COc1cc(/C=N/O)cc(Br)c1OCc1cccc(Cl)c1`, the IC50 is 6.16 µM (inactive).

`Cc1ccn2cc(-c3cc4ccccc4oc3=O)nc2c1`: the IC50 was 9.15 µM (inactive).

As to `CCC1(c2ccc(F)cc2)NC(=O)N(CC(=O)Nc2ccc(-c3nc4ccc(C)cc4s3)cc2)C1=O` (configuration not stated), the IC50 was 1.54 µM.

With `Cc1ccc(OCC(=O)N/N=C/c2cn[nH]c2-c2ccc(Cl)c(Cl)c2)cc1`, the IC50 was 6.3 µM (inactive).

Regarding `CC(C)(C)c1ccc(C(=O)Nc2ccc(CC(=O)O)cc2)o1`, the IC50 was under 0.16 µM.

Consider `O=C(O)CSCC(=O)Nc1ccc(C2CCCCC2)cc1`, for which the IC50 was 0.54 µM.

For `COc1ccc(/C=C2/C(=O)ON=C2c2ccccc2)cc1OC`, the IC50 is > 10 µM (inactive).

Turning to `COc1ccc(N=c2oc3ccc(OC)cc3cc2-c2nc3ccccc3[nH]2)cc1`, the IC50 is 9.72 µM (inactive).

Consider `CC1=CC(C)(C)N2C(=O)C3(SCC(=O)N3c3ccc(F)cc3)c3cc(C)cc1c32` (configuration not stated), for which the IC50 is > 10 µM (inactive).

For the molecule `O=C(Nc1ccc(Cl)c(C(F)(F)F)c1)NC1CC2CCCC(C1)N2Cc1ccccc1` (configuration not stated), the IC50 is 7.84 µM (inactive).

Turning to `O=C(/C=C/c1ccccc1)Nc1cccc(C(=O)O)c1`, the IC50 is 3.59 µM (inactive).

As to `Cc1cccc(N2CCN(C(=O)c3c(C)nn(Cc4ccccc4Cl)c3C)CC2)c1C`, the IC50 is 9.26 µM (inactive).

For `Cc1nn(C(C)(C)C)c(C)c1/C=N/OC(=O)Nc1ccc(Cl)cc1`, the IC50 was under 0.16 µM.

With `O=Cc1s/c(=N\S(=O)(=O)c2ccccc2)n(CCCCl)c1Cl`, the IC50 was 5.89 µM (inactive).

Turning to `Cc1ccc(-c2nc(C(Cl)Cl)c3ccccc3n2)cc1`, the IC50 was 2.08 µM.

Turning to `O=S(=O)(NCC(Nc1ccc(Cl)cc1)c1ccccc1)c1ccc(Cl)cc1` (configuration not stated), the IC50 is 6.69 µM (inactive).

As to `Cc1cccc(NC2=C/C(=N/S(=O)(=O)c3cccs3)c3ccccc3C2=O)c1`, the IC50 is 4.44 µM.

On to `CC1CCC(C(C)C)C(OCC(O)CN2CCN(Cc3ccccc3)CC2)C1` (configuration not stated), for which the IC50 was 7 µM (inactive).

For the molecule `O=C1C(Cl)=C(Nc2ccccc2)C(=O)c2ccccc21`, the IC50 was > 10 µM (inactive).

For `CN1/C(=C/C(=O)c2nc(S(C)(=O)=O)ncc2Cl)C(C)(C)c2ccccc21`, the IC50 is under 0.16 µM.

Turning to `Cc1ccc(NC(=O)c2cc3ccccc3oc2=O)cc1S(=O)(=O)N(C)C`, the IC50 was under 0.16 µM.

For `Fc1c(F)c(C(F)(F)F)c(F)c(F)c1N/N=C\c1cccs1`, the IC50 is 4.78 µM.

Consider `CN1C2CCC1/C(=C/c1ccccn1)C(=O)/C2=C\c1ccccn1`, for which the IC50 is 2.04 µM.

Consider `Cc1ccc(NP(=O)(Oc2ccccc2F)Oc2ccccc2F)cc1`, for which the IC50 was 5.26 µM (inactive).

As to `O=[N+]([O-])c1ccc(/C=N/n2c(C3CCCCC3)n[nH]c2=S)cc1`, the IC50 was 9.52 µM (inactive).

For `COc1ccc(Cn2c(SCc3ccccc3C)nc3cc(OC)c(OC)cc3c2=N)cc1`, the IC50 is 8.86 µM (inactive).

As to `COc1ccc(-c2[nH]ncc2/C=C(/C#N)C(=O)NC2CCCCCC2)cc1`, the IC50 was 9.23 µM (inactive).

As to `CCCCn1c(NS(=O)(=O)c2ccccc2)c(S(=O)(=O)c2ccc(C)cc2)c2nc3ccccc3nc21`, the IC50 is 9.67 µM (inactive).

`C/C=C/Cn1c(SCCCc2ccccc2)nc2c1c(=O)[nH]c(=O)n2C`: the IC50 was > 10 µM (inactive).

Take `Cc1ccc2sc(N(CCCN(C)C)C(=O)c3nc4ccccc4s3)nc2c1C`: the IC50 was 9.48 µM (inactive).

In the case of `CCc1ccc(OCc2n[nH]c(=S)n2C(C)CCCC(C)C)cc1` (configuration not stated), the IC50 was 2.44 µM.

In the case of `CCOC(=O)C1=C(c2ccc(OC)cc2)C(=O)c2ccccc2C1=O`, the IC50 is 8.81 µM (inactive).

For the molecule `CC1CCN(C(=O)/C(=C/c2ccccc2Cl)c2ccccc2)CC1`, the IC50 was 3.83 µM (inactive).

Take `Nc1c(S(=O)(=O)c2cccc(Cl)c2)c2nc3ccccc3nc2n1/N=C/c1ccc(O)c(O)c1`: the IC50 was 4.97 µM (inactive).

Take `C=C1C(=O)C=C2CN(C(=O)c3ccccc3)[C@@](Cc3ccc(F)cc3)(C(=O)OC)[C@@H]12`: the concentration for half-maximal inhibition (IC50) is 1.16 µM.

For the molecule `CC(C)CC(NC(=O)c1ccc(Cl)cc1)C(=O)OCC(=O)c1ccc2c(c1)NC(=O)CO2` (configuration not stated), the half-maximal inhibitory concentration (IC50) is 1.6 µM.

For the molecule `Cc1ccc(-n2c(=O)[nH]c3c(C(N)=O)nc(-c4ccc(C)o4)nc32)cc1`, the IC50 is > 10 µM (inactive).

As to `Cc1cc(O)c(NC(=S)NC(=O)c2ccc(-c3ccc(Cl)cc3)o2)cc1C`, the IC50 was under 0.16 µM.

With `O=C(c1nnsc1S(=O)(=O)c1ccc(Cl)cc1)N1CCOCC1`, the IC50 was 9.43 µM (inactive).
